The source of these data is patent publication US9161946B2, “Dosing methods for treating disease” (Anadys Pharmaceuticals, Inc., priority 2007, dated 2015).

Common to all, as to format: in vivo, cynomolgus macaques
In assay [1] the test system is cytotoxic T cell (CD8 T) in peripheral blood leukocytes. Kind of assay: Cytotoxic T cell (CD8 T) effector proliferative state, flow cytometry of Ki67. As to conditions: 3 on 4 off schedule, FIG. 3B (100 mg/kg). The method, then: (§1) The pharmacodynamic response of a continuous daily dosing schedule (QD) was compared to a cyclic dosing schedule of every-other-day (QOD) and a cyclic dosing schedule of 3 consecutive days of dosing followed by 4 consecutive days of resting (‘3 on 4 off’). All three dosing schedules were conducted with orally administered Compound I Tosylate. Immune parameters measured include cytokine and chemokine secretion in plasma measured by multiplexed immunoassay, neopterin levels in plasma measured by Enzyme Linked Immunosorbant Assay (ELISA), and cytotoxic T cell (CD8 T) effector proliferative state and B cell proliferative state in peripheral blood leukocytes as measured by flow cytometry analysis of Ki67 levels.
(§2) Cynomolgus macaques were given either 30 mg/kg or 100 mg/kg of Compound I as the tosylate according to a dosing schedule of 3 consecutive days of dosing followed by 4 consecutive days of resting (‘3 on 4 off’) over 3 or 8 weeks. The immune response was determined by measuring cytokine and neopterin levels in plasma, as well as B cell and T cell responses in peripheral blood.
(In general: A flow cytometer gives signals particle by particle.)

For the next assay, the system named is IFN-α. Kind of assay: IFN-α level in plasma after oral dosing, multiplexed immunoassay. The settings on record: for Mean Concentration of IFN-α: oral; for IFN-α levels on the third day of the cycle: 3 on 4 off, 100 mg/kg, average±SEM, n=4. As to the method:
as §1
Cynomolgus macaques were given 10, 30, 100 or 300 mg/kg (Compound I equivalents) of Compound I Tosylate according to an every-other-day dosing schedule for 14 days, 28 days, or 13 weeks followed by recovery periods of various lengths. The immune response was determined by measuring cytokine and neopterin levels in plasma, as well as B cell and T cell responses in peripheral blood.
as §2
(§3) Cynomolgus macaques were given either 30 mg/kg or 100 mg/kg of Compound I as the tosylate or 2 mg/kg 852A for 7 consecutive days of QD dosing followed by 7 days of additional monitoring. The immune response was determined by measuring cytokine and neopterin levels in plasma, as well as B cell and T cell responses in peripheral blood.

In a further assay the test system is neopterin. Kind of assay: Neopterin level in plasma, ELISA. As to conditions: QD schedule, 7 consecutive days, FIG. 1C (100 mg/kg). As to the method: as §1, §3
Assay [2] concerns B cell in peripheral blood leukocytes. Kind of assay: B cell proliferative state, flow cytometry of Ki67. The settings on record: 3 on 4 off schedule, repeated courses, FIG. 4B (100 mg/kg). As to the method: as §1, §2
A further assay deals with TNF-α. Kind of assay: TNF-α in plasma after 3rd dose, multiplexed immunoassay. The settings on record: after 3rd dose of 100 mg/kg, QD (D3) versus QOD (D5).
From the text: (§4) Each point indicates an individual animal. Fine lines indicate geometric mean. * indicates significant difference (p<0.05) between pre-treatment and post-dose values; ns: not significant. Non-responders are defined as animals with baseline interferon-α values after both the 1st and 2nd doses. Three such animals were excluded in the QOD group (n=7 final). No animals were excluded from the QD group (n=20 final).
as §1, with “All three dosing schedules were conducted with orally administered Compound I Tosylate.” left out, “levels. […]” for “levels.”
as §3

The next assay deals with IL-6. Kind of assay: IL-6 in plasma after 3rd dose, multiplexed immunoassay. The settings on record: after 3rd dose of 100 mg/kg.
From the text: as §4
as §1, with “All three dosing schedules were conducted with orally administered Compound I Tosylate.” left out, “levels. […]” for “levels.”
as §3

The test system of the next assay is MCP-1. Kind of assay: MCP-1 in plasma after 3rd dose, multiplexed immunoassay. The settings on record: after 3rd dose of 100 mg/kg, pre-treatment subtracted, p<0.05.
From the text: as §4
as §1, with “All three dosing schedules were conducted with orally administered Compound I Tosylate.” left out, “levels. […]” for “levels.”
as §3

The test system of a further assay is IL-12. Kind of assay: IL-12 in plasma after 3rd dose, multiplexed immunoassay. The settings on record: after 3rd dose of 100 mg/kg, pre-treatment subtracted, p<0.05.
From the text: as §4
as §1, with “All three dosing schedules were conducted with orally administered Compound I Tosylate.” left out, “levels. […]” for “levels.”
as §3

[3] abbreviates: QD schedule, 100 mg/kg per dose, p<0.05.

With `CC(=O)O[C@@H]1C[C@@H](CO)O[C@H]1n1c(=O)sc2cnc(N)nc21.Cc1ccc(S(=O)(=O)O)cc1` [Compound I Tosylate], the “T cell responses over repeated courses” value in assay [1] is listed as “either maintained or enhanced”. Also, the “IFN-α level at day 7 for QOD higher than on day 7 for QD” value in the assay on IFN-α (100 mg/kg per dose, p<0.05) turned out to be 15.8 fold. For the same compound, the “IFN-α levels in plasma after 6 doses” value in the assay with IFN-α (3 on 4 off schedule, day 3 in the second cycle, 100 mg/kg (Compound I equivalents)) stood at 3832±1329. Besides, the “IFN-α response on day 7 lower than response on day 1” value in the assay with IFN-α (QD schedule, 100 mg/kg per dose) is 3.3 fold. In the assay with IFN-α (setting [3]), the “IFN-α levels on day 5 compared to day 3” value is on record as “significantly reduced” and the “IFN-α levels on day 7 compared to day 3” value is “significantly reduced”. Moreover, in the assay on IFN-α (QD schedule, 7 consecutive days, FIG. 1C (100 mg/kg)), the “Time of peak IFN-α level before decline” value is on record as 3-4 days of dosing. Further, the “IFN-α levels in plasma after 6 doses” value with IFN-α (QD schedule, Day 6, 100 mg/kg (Compound I equivalents)) is listed as 922±739. Further, the “Time of peak neopterin level before decline” value with neopterin was 3-4 days of dosing. Besides, the “B cell proliferative state as measured by Ki67 levels” value in assay [2] is on record as “enhanced”.
`CC(=O)O[C@@H]1C[C@@H](CO)O[C@H]1n1c(=O)sc2cnc(N)nc21` [Compound I, 5-amino-3-(2′-O-acetyl-3′-deoxy-beta-D-ribofuranosyl)-3H-thiazolo[4,5-d]pyrimidin-2-one]: the “TNF-α induction versus pre-treatment” value in the assay on TNF-α is recorded as “significantly induced (p<0.05) by the QD, but not by the QOD schedule”. In addition, the “IL-6 induction versus pre-treatment” value with IL-6 (QD (D3) versus QOD (D5)) is listed as “significantly induced (p<0.05) by the QD, but not by the QOD schedule”. For the same compound, the “Level of IL-6 expressed relative to IFN-α, QD compared to QOD” value with IL-6 (pre-treatment subtracted, p<0.05) is listed as “significantly higher”. The “Mean Concentration of IFN-α” value with IFN-α (3 on 4 off schedule, Day 1, 100 mg/kg per dose as tosylate salt, 3 hours after dosing, mean ± SEM, pre-treatment subtracted) was 175 ± 69 pg/mL; in the assay on IFN-α (3 on 4 off schedule, Day 3, 100 mg/kg per dose as tosylate salt, 3 hours after dosing, mean ± SEM, pre-treatment subtracted), 4192 ± 768 pg/mL; with IFN-α (3 on 4 off schedule, Day 5 (resting day, no dose), 100 mg/kg per dose as tosylate salt), “Baseline*”; with IFN-α (3 on 4 off schedule, Day 7 (resting day, no dose), 100 mg/kg per dose as tosylate salt), “Baseline*”; with IFN-α (QD schedule, Day 1, 100 mg/kg per dose as tosylate salt, 3 hours after dosing, mean ± SEM, pre-treatment subtracted) it was 498 ± 252 pg/mL; in the assay on IFN-α (QD schedule, Day 3, 100 mg/kg per dose as tosylate salt, 3 hours after dosing, mean ± SEM, pre-treatment subtracted), 8057 ± 1566 pg/mL. Moreover, the “Mean Concentration of IFN-α” value in the assay on IFN-α (QD schedule, Day 5, 100 mg/kg per dose as tosylate salt, 3 hours after dosing, mean ± SEM, pre-treatment subtracted) came out at 2166 ± 615 pg/mL; with IFN-α (QD schedule, Day 7, 100 mg/kg per dose as tosylate salt, 3 hours after dosing, mean ± SEM, pre-treatment subtracted), 151 ± 105 pg/mL; in the assay on IFN-α (QOD schedule, Day 1, 100 mg/kg per dose as tosylate salt, 3 hours after dosing, mean ± SEM, pre-treatment subtracted) it was 1293 ± 513 pg/mL; with IFN-α (QOD schedule, Day 3, 100 mg/kg per dose as tosylate salt, 3 hours after dosing, mean ± SEM, pre-treatment subtracted) it was 1459 ± 634 pg/mL; with IFN-α (QOD schedule, Day 5, 100 mg/kg per dose as tosylate salt, 3 hours after dosing, mean ± SEM, pre-treatment subtracted), 1816 ± 1012 pg/mL; in the assay with IFN-α (QOD schedule, Day 7, 100 mg/kg per dose as tosylate salt, 3 hours after dosing, mean ± SEM, pre-treatment subtracted) it was 2375 ± 982 pg/mL. In addition, the “IFN-α levels on the third day of the cycle” value in the assay with IFN-α (first cycle) amounted to 4192±768; with IFN-α (second cycle), 3832±1329; with IFN-α (third cycle) it was 3879±1140. In the assay with MCP-1, the “Level of MCP-1 expressed relative to IFN-α, QD compared to QOD” value was “significantly higher”. Further, in the assay on IL-12, the “Level of IL-12 expressed relative to IFN-α, QD compared to QOD” value is given as “significantly higher”.
